One experiment has as its target T1, Ab1 (h) (Homo sapiens, UniProt P00519).
T1 construct: purchased Eurofins
Kind of experiment: Radioisotope labeling kinase assay (Eurofins), Ab1. It is filed as biochemical. Conditions: for activity at 1 µM: 1 μM compound, read-out: Inhibitory activity per unit concentration/Activity % Ab1 (h).

Another experiment deals with T2, Flt3 (h) (Homo sapiens, UniProt P36888).
T2 construct: purchased Eurofins
T2 sequence (P36888 27-993): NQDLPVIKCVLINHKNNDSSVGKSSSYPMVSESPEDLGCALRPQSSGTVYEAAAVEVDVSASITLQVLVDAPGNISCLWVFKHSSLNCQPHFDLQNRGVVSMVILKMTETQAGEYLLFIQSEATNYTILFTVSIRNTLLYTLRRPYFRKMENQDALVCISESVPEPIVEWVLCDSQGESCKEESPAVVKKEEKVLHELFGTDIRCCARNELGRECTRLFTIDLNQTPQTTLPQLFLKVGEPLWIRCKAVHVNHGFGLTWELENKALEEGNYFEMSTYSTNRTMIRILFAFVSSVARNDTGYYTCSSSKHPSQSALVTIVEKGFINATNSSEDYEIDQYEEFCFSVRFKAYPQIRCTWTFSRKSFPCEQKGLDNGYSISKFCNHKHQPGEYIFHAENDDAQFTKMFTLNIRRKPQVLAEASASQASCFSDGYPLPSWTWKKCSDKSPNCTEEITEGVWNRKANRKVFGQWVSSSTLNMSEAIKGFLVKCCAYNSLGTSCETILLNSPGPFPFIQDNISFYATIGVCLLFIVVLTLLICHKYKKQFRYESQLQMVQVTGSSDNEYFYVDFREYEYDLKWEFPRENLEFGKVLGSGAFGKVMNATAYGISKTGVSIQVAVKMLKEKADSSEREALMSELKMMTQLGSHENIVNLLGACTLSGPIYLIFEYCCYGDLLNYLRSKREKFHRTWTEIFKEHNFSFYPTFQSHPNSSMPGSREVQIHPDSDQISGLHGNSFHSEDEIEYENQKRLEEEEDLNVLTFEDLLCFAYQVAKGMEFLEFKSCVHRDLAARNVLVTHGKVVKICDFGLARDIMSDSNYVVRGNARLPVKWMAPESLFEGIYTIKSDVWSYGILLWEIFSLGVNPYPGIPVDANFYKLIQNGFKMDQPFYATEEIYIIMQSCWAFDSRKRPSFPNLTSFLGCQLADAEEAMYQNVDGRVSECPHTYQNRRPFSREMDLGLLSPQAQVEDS
In words: Radioisotope labeling kinase assay (Eurofins), Flt3. It is filed as biochemical. As to conditions: for activity at 1 µM: 1 μM compound, read-out: Inhibitory activity per unit concentration/Activity % Flt3 (h).

A further experiment addresses T3, EGFR (T790M, L858R) (h) (Homo sapiens, UniProt P00533, L858R/T790M).
T3 construct: purchased Eurofins
Kind of experiment: Radioisotope labeling kinase assay (Eurofins), EGFR (T790M, L858R). It is filed as biochemical. The protocol: (§1) An activity to a human recombinant protein kinase of a series of compounds was determined by a radioisotope labeling method, which was provided by Eurofins Company. A compound to be detected was mixed with a corresponding protein kinase buffer (20 mM propyl sulfonate (MOPS, […].), 1 mM EDTA, 0.10 β-mercaptoethanol, 0.010 Brij-35, […], and 1 mg/mL BSA), the mixture was added into a reaction system (100 μM reaction substrate […], 8 mM MOPS with a pH value of 7.0, 10 mM MgAcetate, 0.2 mM EDTA, and a certain concentration of γ-^33P-ATP). After adding an MgATP composite solution, the reaction was started at room temperature for 40 minutes, and the reaction was terminated by adding 5 μl of […] solution. Then, 10 μl of reaction solution was dropwise added onto a filter and washed with 75 mM phosphoric acid solution for three times, 5 minutes each time, then washed with methanol once again, and dried and subjected to scintillation counting.

In the next experiment the target is T4, KDR (h) (Homo sapiens, UniProt P35968).
T4 construct: purchased Eurofins
In words: Radioisotope labeling kinase assay (Eurofins), KDR. It is filed as biochemical. As for the experimental part: as §1

A further experiment concerns the target T5, Ret (h) (Homo sapiens, UniProt P07949).
T5 construct: purchased Eurofins
Kind of experiment: Radioisotope labeling kinase assay (Eurofins), Ret. It is filed as biochemical. As for the experimental part:
as §1

The test system of experiment [1] is HGC-27 Human gastric cancer cells. Kind of experiment: MTT cell proliferation inhibition, HGC-27. As to conditions: HGC-27, 72 hours. It is filed as cell-based. The protocol:
(§2) Human cancer cells were purchased from ATCC. The cells were cultured in a culture medium according to the work instruction of ATCC. A dose-response curve was drawn by XL-fitting to determine an IC50 value of a compound. […] Cell proliferation inhibition could be detected by a MTT method (3-(4,5-Dimethylthiazol-2-yl)-2,5-diphenyltetrazolium bromide, and MTT; and 3-(4,5-dimethyl thiazole-2)-2,5-diphenyltertazolium bromide, and thiazolyl blue).
(§3) The cells were cultured in a culture dish first, and the cells in a logarithmic growth phase were inoculated into a 96-well plate (3,000 to 5,000 adherent cells/well, 10,000 to 30,000 suspended cells/well) according to a specific number, with 100 microliters per well, and then cultured in an incubator of 5% CO2 and 37° C. […] An absorbance of a general control group should be a normal value between 0.8 and 1.2. After obtaining absorbance data, a change curve of an inhibition rate was fitted by GraphPad Prism6.03 software and an IC50 value was calculated.
(§4) Calculation of drug inhibition rate: relative cell proliferation inhibition rate=[(control group A570−experimental group A570)/control group […], wherein A570 represented the absorbance at 570 nm.

In experiment [2] the test system is MGC-803 Human gastric cancer cells. In words: MTT cell proliferation inhibition, MGC-803. It is filed as cell-based. As to conditions: MGC-803, 72 hours. The protocol: as §2, §3, §4
Experiment [3] has as its system K562 Human acute myelogenous leukemia. In words: MTT cell proliferation inhibition, K562. It is filed as cell-based. As to conditions: K562, 72 hours. The protocol:
as §2, §3, §4

Experiment [4] concerns MV4-11 Human acute myelogenous leukemia. In words: MTT cell proliferation inhibition, MV4-11. It is filed as cell-based. As to conditions: MV4-11, 72 hours. The protocol:
as §2, §3, §4

The test system of another experiment is MM1S Human myeloma cells. In words: MTT cell proliferation inhibition, MM1S. It is filed as cell-based. As to conditions: MM1.S, 72 hours. The protocol: as §2, §3, §4
Experiment [5] concerns Karpas-299 Human anaplastic large cell lymphoma cells. In words: MTT cell proliferation inhibition, Karpas-299. It is filed as cell-based. Conditions: Karpas-299, 72 hours. As for the experimental part:
as §2, §3, §4

Experiment [6] has as its system TT Human medullary thyroid cancer. In words: MTT cell proliferation inhibition, TT. It is filed as cell-based. As to conditions: 72 hours. As for the experimental part:
as §2, §3, §4

Experiment [7] relates to HT1080 Human fibrosarcoma cells. Kind of experiment: MTT cell proliferation inhibition, HT1080. It is filed as cell-based. Conditions: HT-1080, HT1080, 72 hours. As for the experimental part:
as §2, §3, §4

In experiment [8] the test system is Aspc-1 Human pancreatic cancer cells. In words: MTT cell proliferation inhibition, Aspc-1. As to conditions: ASPC1, Aspc-1, 72 hours. It is filed as cell-based. As for the experimental part: as §2, §3, §4

T1 sequence (P00519 whole entry): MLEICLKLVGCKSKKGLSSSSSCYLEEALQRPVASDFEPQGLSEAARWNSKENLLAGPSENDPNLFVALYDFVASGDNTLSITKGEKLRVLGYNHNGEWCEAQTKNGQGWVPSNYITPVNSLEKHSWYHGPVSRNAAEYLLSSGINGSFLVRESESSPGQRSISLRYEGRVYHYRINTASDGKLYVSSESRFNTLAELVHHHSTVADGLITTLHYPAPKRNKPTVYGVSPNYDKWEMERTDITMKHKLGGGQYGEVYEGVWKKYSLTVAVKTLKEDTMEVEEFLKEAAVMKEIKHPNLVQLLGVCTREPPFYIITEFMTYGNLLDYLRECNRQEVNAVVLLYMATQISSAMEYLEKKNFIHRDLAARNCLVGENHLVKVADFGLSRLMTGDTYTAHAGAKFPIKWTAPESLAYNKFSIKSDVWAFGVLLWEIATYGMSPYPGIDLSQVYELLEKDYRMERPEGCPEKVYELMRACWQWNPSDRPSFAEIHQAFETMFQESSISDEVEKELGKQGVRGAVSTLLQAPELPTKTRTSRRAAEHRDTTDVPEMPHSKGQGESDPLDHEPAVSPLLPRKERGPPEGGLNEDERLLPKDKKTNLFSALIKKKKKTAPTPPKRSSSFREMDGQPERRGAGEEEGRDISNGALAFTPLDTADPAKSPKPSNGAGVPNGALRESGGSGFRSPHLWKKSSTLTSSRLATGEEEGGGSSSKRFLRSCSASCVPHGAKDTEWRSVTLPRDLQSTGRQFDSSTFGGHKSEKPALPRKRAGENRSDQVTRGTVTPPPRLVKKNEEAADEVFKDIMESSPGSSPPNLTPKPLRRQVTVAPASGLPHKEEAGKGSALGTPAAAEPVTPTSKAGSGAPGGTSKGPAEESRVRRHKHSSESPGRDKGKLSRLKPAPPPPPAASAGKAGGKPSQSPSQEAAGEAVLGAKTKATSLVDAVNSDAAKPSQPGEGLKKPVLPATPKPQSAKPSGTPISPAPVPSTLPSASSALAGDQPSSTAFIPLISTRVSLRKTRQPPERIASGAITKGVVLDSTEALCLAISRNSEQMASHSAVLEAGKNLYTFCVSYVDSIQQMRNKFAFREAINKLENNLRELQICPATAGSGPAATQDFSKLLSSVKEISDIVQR
T3 sequence (P00533 25-1210 T790M/L858R): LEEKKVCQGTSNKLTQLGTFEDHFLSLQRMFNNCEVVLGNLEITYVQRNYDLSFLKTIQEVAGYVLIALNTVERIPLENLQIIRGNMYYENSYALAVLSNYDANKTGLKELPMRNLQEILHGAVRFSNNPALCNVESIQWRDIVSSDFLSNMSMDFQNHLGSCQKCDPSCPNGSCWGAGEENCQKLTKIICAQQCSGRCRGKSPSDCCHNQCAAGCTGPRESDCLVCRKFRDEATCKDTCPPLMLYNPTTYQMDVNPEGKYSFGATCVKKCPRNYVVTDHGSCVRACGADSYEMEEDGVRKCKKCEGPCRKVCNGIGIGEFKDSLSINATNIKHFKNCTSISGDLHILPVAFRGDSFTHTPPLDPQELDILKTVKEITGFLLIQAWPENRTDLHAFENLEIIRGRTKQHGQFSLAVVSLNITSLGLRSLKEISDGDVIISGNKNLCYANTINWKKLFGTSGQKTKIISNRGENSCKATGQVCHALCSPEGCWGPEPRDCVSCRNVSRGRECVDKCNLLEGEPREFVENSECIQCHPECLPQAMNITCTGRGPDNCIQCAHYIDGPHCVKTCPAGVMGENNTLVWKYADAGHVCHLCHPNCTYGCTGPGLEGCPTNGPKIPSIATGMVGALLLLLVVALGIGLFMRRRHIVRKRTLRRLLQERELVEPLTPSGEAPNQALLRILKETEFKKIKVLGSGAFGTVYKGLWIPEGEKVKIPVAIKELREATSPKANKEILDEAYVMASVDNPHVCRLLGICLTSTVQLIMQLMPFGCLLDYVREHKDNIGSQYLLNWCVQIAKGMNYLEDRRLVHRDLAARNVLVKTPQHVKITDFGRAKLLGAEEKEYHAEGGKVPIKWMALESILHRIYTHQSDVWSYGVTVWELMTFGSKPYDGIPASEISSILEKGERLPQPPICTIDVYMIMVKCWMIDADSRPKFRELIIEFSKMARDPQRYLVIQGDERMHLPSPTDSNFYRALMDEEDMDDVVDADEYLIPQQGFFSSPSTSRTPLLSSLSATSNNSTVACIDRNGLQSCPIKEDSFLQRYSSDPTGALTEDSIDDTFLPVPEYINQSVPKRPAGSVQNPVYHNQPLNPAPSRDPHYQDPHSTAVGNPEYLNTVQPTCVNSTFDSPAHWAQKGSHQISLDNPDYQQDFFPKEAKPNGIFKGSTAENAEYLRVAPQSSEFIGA
T5 sequence (P07949 29-1114): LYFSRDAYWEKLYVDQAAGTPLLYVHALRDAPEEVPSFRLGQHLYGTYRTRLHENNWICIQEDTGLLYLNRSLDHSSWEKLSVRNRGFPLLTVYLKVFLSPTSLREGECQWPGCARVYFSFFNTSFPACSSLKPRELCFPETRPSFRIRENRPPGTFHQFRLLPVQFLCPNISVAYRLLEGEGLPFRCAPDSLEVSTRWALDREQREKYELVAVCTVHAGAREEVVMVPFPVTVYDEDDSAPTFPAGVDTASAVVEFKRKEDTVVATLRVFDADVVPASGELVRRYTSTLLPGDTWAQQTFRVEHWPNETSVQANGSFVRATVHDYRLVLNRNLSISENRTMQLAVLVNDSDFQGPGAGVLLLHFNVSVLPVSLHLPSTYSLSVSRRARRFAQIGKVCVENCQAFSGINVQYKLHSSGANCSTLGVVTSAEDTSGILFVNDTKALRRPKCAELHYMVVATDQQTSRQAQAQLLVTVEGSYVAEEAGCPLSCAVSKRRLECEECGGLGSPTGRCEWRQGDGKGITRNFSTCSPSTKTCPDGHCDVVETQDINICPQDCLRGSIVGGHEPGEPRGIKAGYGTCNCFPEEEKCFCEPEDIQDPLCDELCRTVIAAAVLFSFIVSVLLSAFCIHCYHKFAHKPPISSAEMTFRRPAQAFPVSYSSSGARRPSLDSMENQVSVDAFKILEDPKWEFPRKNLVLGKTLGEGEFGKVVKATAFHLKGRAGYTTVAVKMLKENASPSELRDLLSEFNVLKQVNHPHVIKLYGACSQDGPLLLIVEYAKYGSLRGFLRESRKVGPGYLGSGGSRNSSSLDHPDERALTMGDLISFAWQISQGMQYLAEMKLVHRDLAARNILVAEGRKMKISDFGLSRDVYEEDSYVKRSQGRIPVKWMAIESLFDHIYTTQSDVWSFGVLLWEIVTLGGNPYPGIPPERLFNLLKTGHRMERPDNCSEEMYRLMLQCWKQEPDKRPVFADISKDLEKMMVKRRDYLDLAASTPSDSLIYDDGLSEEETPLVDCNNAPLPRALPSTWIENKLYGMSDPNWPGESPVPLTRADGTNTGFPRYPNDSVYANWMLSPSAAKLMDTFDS
T4 sequence (P35968 20-1356): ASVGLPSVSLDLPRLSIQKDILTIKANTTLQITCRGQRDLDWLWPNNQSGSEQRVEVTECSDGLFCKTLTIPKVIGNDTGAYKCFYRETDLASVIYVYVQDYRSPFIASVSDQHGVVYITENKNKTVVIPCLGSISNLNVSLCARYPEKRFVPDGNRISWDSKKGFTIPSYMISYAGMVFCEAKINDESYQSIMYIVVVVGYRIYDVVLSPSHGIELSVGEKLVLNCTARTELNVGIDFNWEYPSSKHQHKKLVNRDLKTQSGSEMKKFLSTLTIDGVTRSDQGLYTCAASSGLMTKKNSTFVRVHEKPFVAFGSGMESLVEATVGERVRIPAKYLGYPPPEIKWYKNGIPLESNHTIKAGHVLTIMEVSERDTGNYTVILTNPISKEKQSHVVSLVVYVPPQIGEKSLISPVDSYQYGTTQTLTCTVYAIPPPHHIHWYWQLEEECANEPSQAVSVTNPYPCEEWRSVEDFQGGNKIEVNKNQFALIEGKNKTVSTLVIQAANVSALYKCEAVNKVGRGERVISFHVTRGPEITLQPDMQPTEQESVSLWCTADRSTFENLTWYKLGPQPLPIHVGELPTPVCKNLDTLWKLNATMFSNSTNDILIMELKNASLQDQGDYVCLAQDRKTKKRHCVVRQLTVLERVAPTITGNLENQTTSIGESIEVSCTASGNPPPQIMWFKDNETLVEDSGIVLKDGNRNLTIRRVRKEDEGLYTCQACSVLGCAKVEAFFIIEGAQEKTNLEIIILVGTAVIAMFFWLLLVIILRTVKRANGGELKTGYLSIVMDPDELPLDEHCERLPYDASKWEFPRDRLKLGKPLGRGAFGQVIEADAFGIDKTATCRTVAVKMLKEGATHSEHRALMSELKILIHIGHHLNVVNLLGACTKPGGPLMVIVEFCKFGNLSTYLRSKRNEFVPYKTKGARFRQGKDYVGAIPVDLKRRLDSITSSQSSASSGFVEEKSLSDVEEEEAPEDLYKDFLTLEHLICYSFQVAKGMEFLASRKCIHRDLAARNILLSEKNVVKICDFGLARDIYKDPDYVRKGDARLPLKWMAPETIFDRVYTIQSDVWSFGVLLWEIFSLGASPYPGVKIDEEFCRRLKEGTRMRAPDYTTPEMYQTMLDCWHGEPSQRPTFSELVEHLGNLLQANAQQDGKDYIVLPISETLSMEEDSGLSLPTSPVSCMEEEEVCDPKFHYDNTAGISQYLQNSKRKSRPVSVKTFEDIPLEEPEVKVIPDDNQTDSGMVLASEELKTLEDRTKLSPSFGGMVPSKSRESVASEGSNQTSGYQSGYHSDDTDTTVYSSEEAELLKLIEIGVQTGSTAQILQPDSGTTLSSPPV

With `O=C(/C=C/CN1CCCC1)Nc1cc2cc(c1)Nc1nccc(n1)-c1cccc(c1)COC/C=C/COC2` [XVI-1], the activity at 1 µM on Ab1 (h) is -1%; on Flt3 (h) it was 1%. Further, the half-inhibitory concentration (IC50) stood at 2 nM at Flt3 (h); 10 nM against EGFR (T790M, L858R) (h); 17 nM at KDR (h); 66 nM at Ret (h); 110 nM in [1]; 573 nM in experiment [2]. Also, the IC50 in experiment [3] turned out to be 470 nM; in experiment [4], 30 nM; in the experiment on MM1S Human myeloma cells, 92 nM; in [5], 133 nM; in [6] it was 143 nM; in [7], 706 nM. Besides, the IC50 in [8] was 689 nM.
In the case of `O=C(O)/C=C/C(=O)Nc1cc2cc(c1)Nc1nccc(n1)-c1cccc(c1)COC/C=C/COC2` [XVI-9], at Flt3 (h), it took 31 nM to reach half-maximal inhibition (IC50) and the activity at 1 µM came out at 4%.
On to `O=C(/C=C/C(=O)N1CCNCC1)Nc1cc2cc(c1)Nc1nccc(n1)-c1cccc(c1)COC/C=C/COC2` [XVI-11], for which the values for the half-inhibitory concentration (IC50) on Ab1 (h), against Flt3 (h) and against KDR (h) were 34 nM, 22 nM and 189 nM, respectively. Moreover, the values for the activity at 1 µM on Ab1 (h) and on Flt3 (h) were -1% and 1%, respectively.
With `C/C=C/C(=O)Nc1cc2cc(c1)Nc1nccc(n1)-c1cccc(c1)COC/C=C/COC2` [XVI-4], the results for the activity at 1 µM at Ab1 (h) and at Flt3 (h) were 11% and 5%, respectively. Also, the IC50 on Flt3 (h) came to 5 nM; against EGFR (T790M, L858R) (h), 60 nM; on Ret (h) it was 314 nM.
On to `O=C(/C=C/C(=O)N1CCOCC1)Nc1cc2cc(c1)Nc1nccc(n1)-c1cccc(c1)COC/C=C/COC2` [XVI-10], for which the half-maximal inhibitory concentration (IC50) on Ab1 (h) turned out to be 139 nM; against Flt3 (h), 21 nM; at KDR (h) it was 40 nM. Further, the results for the activity at 1 µM at Ab1 (h) and at Flt3 (h) were 9% and 3%, respectively.
Turning to `C1=C/COCc2cccc(c2)-c2ccnc(n2)Nc2cc(cc(OC/C=C/CN3CCCC3)c2)COC/1` [XVI-12], at Flt3 (h), 15 nM corresponded to half-maximal inhibition (IC50) and the activity at 1 µM was -8%.
`O=C(/C=C/CN1CCOCC1)Nc1cc2cc(c1)Nc1nccc(n1)-c1cccc(c1)COC/C=C/COC2` [XVI-3]: the activity at 1 µM came out at 8% at Ab1 (h) and 3% at Flt3 (h). The IC50 amounted to 4 nM against Flt3 (h); 21 nM at EGFR (T790M, L858R) (h); 21 nM on KDR (h); 145 nM at Ret (h); 495 nM in experiment [1]; 2760 nM in experiment [2]. For the same compound, the IC50 in experiment [3] was determined as 2880 nM; in [4] it was 87 nM; in the experiment on MM1S Human myeloma cells it was 379 nM; in experiment [5] it was 1180 nM; in experiment [6], 1470 nM; in experiment [7] it was 1580 nM. This compound yielded an IC50 in experiment [8] of 2480 nM.
On to `C/C=C/C(=O)Nc1cc2cc(c1)Nc1nccc(n1)-c1cccc(c1)COC/C=C/CN(C)C2` [XVI-28], for which the activity at 1 µM at Ab1 (h) was determined as 37%; at Flt3 (h) it was 8%. For the same compound, the IC50 on Flt3 (h) worked out at 9 nM; against EGFR (T790M, L858R) (h), 300 nM; at KDR (h), 76 nM; at Ret (h), 1980 nM.
Regarding `C#CC(=O)Nc1cc2cc(c1)Nc1nccc(n1)-c1cccc(c1)COC/C=C/COC2` [XVII-1], the activity at 1 µM turned out to be 1% at Ab1 (h) and 4% on Flt3 (h). In addition, the IC50 worked out at 7 nM against Flt3 (h); 39 nM against EGFR (T790M, L858R) (h); 110 nM at Ret (h).
For the compound `CN(C)C/C=C/C(=O)Nc1cc2cc(c1)Nc1nccc(n1)-c1cccc(c1)COC/C=C/COC2` [XVI-8], the activity at 1 µM on Ab1 (h) is 4%; on Flt3 (h), 2%. Besides, the half-maximal inhibitory concentration (IC50) at Flt3 (h) worked out at 9 nM; at EGFR (T790M, L858R) (h), 17 nM; against KDR (h), 97 nM; against Ret (h), 79 nM.
Take `Nc1cc2cc(c1)Nc1nccc(n1)-c1cccc(c1)COC/C=C/COC2` [XIII-1]: the activity at 1 µM at Ab1 (h) was 11%; on Flt3 (h) it was 4%. Moreover, the IC50 against Flt3 (h) is 8 nM; against EGFR (T790M, L858R) (h) it was 19 nM; against KDR (h), 50 nM; against Ret (h) it was 123 nM.
Regarding `CN(C)C/C=C/C(=O)Nc1cc2cc(c1)Nc1nccc(n1)-c1cccc(c1)COC/C=C/CN(C)C2` [XVI-26], the activity at 1 µM stood at 32% at Ab1 (h) and 7% at Flt3 (h). In addition, the concentration for half-maximal inhibition (IC50) against Flt3 (h) was 21 nM; against EGFR (T790M, L858R) (h) it was 164 nM; on KDR (h), 329 nM; on Ret (h), 594 nM.
On to `C=CC(=O)Nc1cc2cc(c1)Nc1nccc(n1)-c1cccc(c1)COC/C=C/COC2` [XVI-6], for which the activity at 1 µM was determined as 17% at Ab1 (h) and 5% on Flt3 (h). The IC50 on Flt3 (h) was 15 nM; against EGFR (T790M, L858R) (h) it was 64 nM; against KDR (h) it was 61 nM; against Ret (h), 202 nM.

The record behind these values is patent publication US20240425518A1, “N-MACROCYCLIC AMIDE COMPOUNDS, PREPARATION METHODS THEREOF AND APPLICATIONS THEREOF AS MEDICAMENTS” (Chengdu FANXI Biopharma Co., Ltd., priority 2023, published 2024).
